Reference: patent US10343974B1, “Cyclohexanol ethers as mediterranean fruit fly attractants” (The United States of America, as Represented by the …, priority 2018, dated 2019)

Columns and labels:
[1] = system: Mediterranean fruit flies; experiment: Field cage bioassay: attraction of male Mediterranean fruit flies to Jackson traps baited with PVC plugs; format: in vivo, Ceratitis capitata; conditions: grand mean capture ± 2 pooled standard deviations; ~100 mg PVC plug with ~40% compound in Jackson trap; screened field cage, 24-hour period; 150 male flies released per cage; same letter = not significantly different (P >0.05)
Experimental: Assessment of Biological Properties: Compounds were assessed for the ability to attract Mediterranean fruit flies in an enclosed field cage.
Formulation of compounds on PVC disks: All test compounds were >95% pure by GC-MS, except for (1R*,2R*,5R*)-sec-butyl 5-methoxy-2-methylcyclohexanecarboxylate which was tested as a mixture of diastereomers due to the use of (±)-2-butanol in the formation of the ester, and were formulated as ˜100 mg polymeric plugs containing ˜40% by mass of a compound of Formula (I). A typical protocol dissolved polyvinyl chloride (PVC) (864 mg), dibutyl phthalate (DBP) (432 mg), dioctyl phthalate (DOP) (432 mg), (1R*,2R*,5R*)-ethyl 5-methoxy-2-methylcyclohexanecarboxylate (1) (1.152 g) in THF (8.64 g). The mixture was then pipetted (˜400 mg) into respective porcelain wells. The THF was allowed to evaporate by warming the porcelain plate at 40° C. for 15 minutes, and then standing at room temperature until a constant weigh was achieved, to afford ˜26 PVC-attractant disks with a mass of 104.0±3.4 mg, (x±s).
Bioassays: Compounds were evaluated in screened field cages (3×3×2.5 meters) over a 24-hour period. Each field cage housed a single carousel, centered on the ceiling about 2 meters above the floor of the enclosure, which rotated (˜1 revolution/min) 8 equally-spaced Jackson traps. A polymeric plug containing a test compound was placed in a small basket in each Jackson trap with a sticky insert to record the number of fly catches. Test compounds (6) were screened together with two “standard” attractants, TML (FarmaTech, USA) and (±)-CER-B1 (prepared according to Khrimian, A., et al., Tetrahedron, 59: 5475 (2003)). A typical experiment (1) used 3 cages and began between 9-10 am each day, (2) TML and (±)-CER-B were arranged at two directly opposing poles of the carousel with 6 test compounds (3 on each side of TML and (±)-CER-B1) randomly placed relative to the standards, (3) 6 randomly-selected patterns were tested over a 2-day period, with the same sequence of patterns repeated three times (days 1 & 2, days 3 & 4, and days 5 & 6) for a total of 3 replicates, (4) each 2-day period (days 1 & 2, days 3 & 4, and days 5 & 6) used a different cohort of 7-8 day old laboratory reared male Mediterranean fruit flies (n=3), and (5) 150 male Mediterranean fruit flies were released each morning per 24-h cage bioassay for a total of 900 flies per cohort and 2700 flies during the entire testing period. A fresh lure was used for each cage experiment (n=18). Mean fly catch numbers are depicted in the table below.
For each cohort, a single-factor ANOVAs was applied to test the null hypothesis that the mean capture of a particular lure across both days (six trials total, three each day) could be used to estimate attraction. […] An additional single-factor ANOVAs was applied to test the null hypothesis that the grand mean capture of a particular lure could be used to estimate attraction, independent of the cohort. Again, none of the lure-respective ANOVAs were significant, a result that provided evidence to support congruence in the biological response across all cages, days, and cohorts. Also depicted in the table below, the grand mean capture ±2 pooled standard deviations (2 spooled) (Skoog, D. and Leary, J., Principles of Instrumental Analysis, John Wiley & Sons, Eds: New York, 1992). In general, the most attractive compounds in the above bioassay captured a similar (statistically equivalent) or greater number of flies relative to trimedlure.

male medfly = conditions: classification in the literature; cited from earlier work
[2] = DeMilo 1992; cited from earlier work

Row | Compound | Mean Catch per replicate [1] | attractant strength for male medfly (male medfly) | stability in formulations and the environment [2]
1 | CCOC(=O)[C@@H]1C[C@H](I)CC[C@H]1C (relative stereo) [Ceralure-B1, (1R*,2R*,5R*)-ethyl 5-iodo-2-methylcyclohexanecarboxylate, reference compound] | 94.0 ± 10.7 days |  | 
2 | CO[C@@H]1CC[C@@H](C)[C@H](C(=O)OCC(F)(F)F)C1 (relative stereo) [(1R*,2R*,5R*)-2,2,2-trifluoroethyl 5-methoxy-2-methylcyclohexanecarboxylate] | 94.0 ± 11.5 days |  | 
3 | CCC(C)OC(=O)[C@@H]1C[C@H](OC)CC[C@H]1C (relative stereo) [(1R*,2R*,5R*)-sec-butyl 5-methoxy-2-methylcyclohexanecarboxylate] | 13.7 ± 3.0c |  | 
4 | tert-butyl 4- (and 5)-chloro-2-methylcyclohexanecarboxylate [Trimedlure, reference compound] | 82.7 ± 11.3 days | weak attractant | 
5 | CO[C@@H]1CC[C@@H](C)[C@H](C(=O)OC(C)C)C1 (relative stereo) [(1R*,2R*,5R*)-isopropyl 5-methoxy-2-methylcyclohexanecarboxylate] | 64.7 ± 10.2a |  | 
6 | CCOC(=O)[C@@H]1C[C@H](OC)CC[C@H]1C (relative stereo) [(1R*,2R*,5R*)-ethyl 5-methoxy-2-methylcyclohexanecarboxylate] | 91.0 ± 9.8 days |  | 
7 | ethyl esters of 4 (and 5)-iodo-2-methylcyclohexane-1-carboxylate [CER] |  |  | unstable
8 | CO[C@@H]1CC[C@@H](C)[C@H](C(=O)OC(C)(C)C)C1 (relative stereo) [(1R*,2R*,5R*)-tert-butyl 5-methoxy-2-methylcyclohexanecarboxylate] | 9.0 ± 2.8c |  | 
9 | CCCOC(=O)[C@@H]1C[C@H](OC)CC[C@H]1C (relative stereo) [(1R*,2R*,5R*)-propyl 5-methoxy-2-methylcyclohexanecarboxylate] | 38.0 ± 9.7b |  | 
